Measured values reported in US20070135453A1, “6-(2,4,6-Trihalophenyl)triazolopyrimidines, their preparation and their use for controlling harmful fungi, and compositions comprising these compounds” (BASF Aktiengesellschaft, priority 2003, published 2007).

Assays:
[1] = system: Botrytis cinerea; assay: Activity against gray mold on bell-pepper leaves caused by Botrytis cinerea, protective application; format: in vivo; conditions: 250 ppm, protective spray, assessed after 5 days, untreated plants 100% infected
Experimental: (§1) The active compounds were prepared as a stock solution with 25 mg of active compound which was made up to 10 ml using a mixture of acetone and/or DMSO and the emulsifier Uniperol® EL (wetting agent having emulsifying and dispersing action based on ethoxylated alkylphenols) in a volume ratio of solvent/emulsifier of 99 to 1.
(§2) The mixture was then made up with water to 100 ml. This stock solution was diluted with the solvent/emulsifier/water mixture described to the concentration of active compounds stated below.
Use Example 2—Activity Against Gray Mold on Bell-Pepper Leaves Caused by Botrytis cinerea, Protective Application
Bell-pepper seedlings of the cultivar “Neusiedler Ideal Elite” were, after 2 to 3 leaves were well developed, sprayed to runoff point with an aqueous suspension having the concentration of active compounds stated below. The next day, the treated plants were inoculated with a spore suspension of Botrytis cinerea which contained 1.7×10^6 spores/ml in a 2% aqueous biomold solution. The test plants were then placed in a dark acclimatized chamber at 22 to 24° C. and high atmospheric humidity. After 5 days, the extent of the fungal infection on the leaves could be determined visually in %.

[2] = system: Pyrenophora teres; assay: Activity against net blotch of barley caused by Pyrenophora teres, protective application; format: in vivo; conditions: 250 ppm, protective spray, assessed after 6 days, untreated plants 90% infected
Experimental: as §1, §2
Use Example 1—Activity Against Net blotch of Barley Caused by Pyrenophora teres, Protective Application
Leaves of potted barley seedlings of the cultivar “Hanna” were sprayed to runoff point with an aqueous suspension having the concentration of active compounds stated below. 24 hours after the spray coating had dried on, the test plants were inoculated with an aqueous spore suspension of Pyrenophora [syn. Drechslera]teres, the net blotch pathogen. The test plants were then placed in a greenhouse at temperatures between 20 and 24° C. and 95 to 100% relative atmospheric humidity. After 6 days, the extent of the development of the disease was determined visually in % infection of the entire leaf area.

CC1CCN(c2c(-c3c(Cl)cc(Cl)cc3Cl)c(C#N)nc3ncnn23)CC1 [Example 1, 5-cyano-6-(2,4,6-trichlorophenyl)-7-(4-methylpiperidinyl)-1,2,4-triazolo[1,5a]pyrimidine]
fungal infection on the leaves [1]: about 7% | infection of the entire leaf area [2]: about 1%
